Read-outs that look alike come from different tables or passages of the source.
What was measured:
DLD1 WT cells = test: DLD1 viability assay (CellTiter-Glo, 7 days), DLD1 WT; format: cell-based
Description: (§1) The seeding densities are pre-determined from the growth curve kinetics performed to ensure log linear phase of cell growth for these 2 cell lines. These assay plates are then placed in the incubator at 37° C., 5% CO2, relative humidity>90% for a few hours before addition of test compounds. Compounds are dispensed using the Tecan HPD300 or Echo based on the plate map in the appropriate wells of the 384-well plates. […] After addition of the test compounds, the plates are incubated at 37° C., 5% CO2, relative humidity>90% for 7 days. CellTiter-Glo (Promega Cat. No. G7573), ATP detection reagent is prepared according to manufacturer's specifications. Cell assay plates are removed from incubator and bring to room temperature (RT) by letting them sit at bench top for at least 15 min. Using the MultiDrop liquid handler or a multichannel pipette, 35 μL/well of CTG is added and the plates are then placed shakes for 5 seconds, RT. These plates are then incubated for 30 minutes in the dark at RT before measuring luminescence using Spectramax/Enspire/Ensight/Envision/PheraSTAR.

DLD1 BRCA2 (−/−) cells = test: DLD1 viability assay (CellTiter-Glo, 7 days), DLD1 BRCA2 (−/−); format: cell-based; details: read-out: Viability IC50 (μM) DLD1 BRCA2 null
Description: as §1

| SMILES | IC50 (DLD1 WT cells; Homo sapiens, DLD-1, 168 h) [µM] | IC50 (DLD1 BRCA2 (−/−) cells; Homo sapiens, DLD-1, 168 h) [µM] | IC50 (DLD1 WT cells) [µM] | IC50 (DLD1 BRCA2 (−/−) cells) [µM] |
| --- | --- | --- | --- | --- |
| COc1cnc(Cl)cc1-c1cc(C)ncc1C(=O)Nc1nc2ncc(C3CCC(C)(C#N)CC3)nc2s1 (stereo not shown) [Example 410, 2′-chloro-N-(6-(4-cyano-4-methylcyclohexyl)thiazolo[4,5-b]pyrazin-2-yl)-5′-methoxy-6-methyl-[4,4′-bipyridine]-3-carboxamide] | > 10 | 0.001 to 0.1 | – | – |
| COc1cnc(Cl)cc1-c1cc(C)ncc1C(=O)Nc1nc2ncc(N3CCO[C@@H](C)C3)nc2s1 [Example 490, (S)-2′-chloro-5′-methoxy-6-methyl-N-(6-(2-methylmorpholino)thiazolo[4,5-b]pyrazin-2-yl)-[4,4′-bipyridine]-3-carboxamide] | > 10 | 0.001 to 0.1 | – | – |
| COc1cnc(Cl)cc1-c1cc(C)ncc1C(=O)Nc1nc2ncc(N3CCO[C@H](C)C3)nc2s1 [Example 488, (R)-2′-chloro-5′-methoxy-6-methyl-N-(6-(2-methylmorpholino)thiazolo[4,5-b]pyrazin-2-yl)-[4,4′-bipyridine]-3-carboxamide] | > 10 | 0.001 to 0.1 | – | – |
| COc1cnc(Cl)cc1-c1cc(C)ncc1C(=O)Nc1nc2ncc(N3CCC[C@H](C)C3)nc2s1 [Example 481, (S)-2′-chloro-5′-methoxy-6-methyl-N-(6-(3-methylpiperidin-1-yl)thiazolo[4,5-b]pyrazin-2-yl)-[4,4′-bipyridine]-3-carboxamide] | 7.5 to 10 | 0.25 to 0.5 | – | – |
| COc1cnc(Cl)cc1-c1cc(C)ncc1C(=O)Nc1nc2ncc(N3CCC(C(C)(C)C#N)CC3)nc2s1 [Example 468, 2′-chloro-N-(6-(4-(2-cyanopropan-2-yl)piperidin-1-yl)thiazolo[4,5-b]pyrazin-2-yl)-5′-methoxy-6-methyl-[4,4′-bipyridine]-3-carboxamide] | 5 to 7.5 | 0.001 to 0.1 | – | – |
| COc1cnc(Cl)cc1-c1cc(C)ncc1C(=O)Nc1nc2ncc(C3CCC(OC(F)F)CC3)nc2s1 (stereo not shown) [Example 398, 2′-chloro-N-(6-(4-(difluoromethoxy)cyclohexyl)thiazolo[4,5-b]pyrazin-2-yl)-5′-methoxy-6-methyl-[4,4′-bipyridine]-3-carboxamide] | > 10 | 0.001 to 0.1 | – | – |
| COc1cnc(Cl)cc1-c1cc(C)ncc1C(=O)Nc1nc2ncc(N3CC[C@H](OC)[C@@H](F)C3)nc2s1 [Example 452, 2′-chloro-N-(6-((3S,4S)-3-fluoro-4-methoxypiperidin-1-yl)thiazolo[4,5-b]pyrazin-2-yl)-5′-methoxy-6-methyl-[4,4′-bipyridine]-3-carboxamide] | > 10 | 0.001 to 0.1 | – | – |
| COc1cnc(Cl)cc1-c1cc(C)ncc1C(=O)Nc1nc2ncc(C3=CCOC(C)C3)nc2s1 (stereo not shown) [Example 443, 2′-chloro-5′-methoxy-6-methyl-N-(6-(2-methyl-3,6-dihydro-2H-pyran-4-yl)thiazolo[4,5-b]pyrazin-2-yl)-[4,4′-bipyridine]-3-carboxamide] | > 10 | 0.001 to 0.1 | – | – |
| COc1cnc(Cl)cc1-c1cc(C)ncc1C(=O)Nc1nc2ncc(N3CCC(C(F)(F)F)CC3)nc2s1 [Example 472, 2′-chloro-5′-methoxy-6-methyl-N-(6-(4-(trifluoromethyl)piperidin-1-yl)thiazolo[4,5-b]pyrazin-2-yl)-[4,4′-bipyridine]-3-carboxamide] | 5 to 7.5 | 0.001 to 0.1 | – | – |
| COc1cnc(Cl)cc1-c1cc(C)ncc1C(=O)Nc1nc2ncc(N3CCC(O)C(F)(F)C3)nc2s1 (single isomer, unassigned) [Example 458, (R or S)-2′-chloro-N-(6-(3,3-difluoro-4-hydroxypiperidin-1-yl)thiazolo[4,5-b]pyrazin-2-yl)-5′-methoxy-6-methyl-[4,4′-bipyridine]-3-carboxamide] | – | – | > 10 | 0.001 to 0.1 |
| CNC1CCN(c2cnc3nc(NC(=O)c4cnc(C)cc4-c4cc(Cl)ncc4OC)sc3n2)CC1(F)F (stereo not shown) [Example 455, 2′-chloro-N-(6-(3,3-difluoro-4-(methylamino)piperidin-1-yl)thiazolo[4,5-b]pyrazin-2-yl)-5′-methoxy-6-methyl-[4,4′-bipyridine]-3-carboxamide] | > 10 | 0.001 to 0.1 | – | – |
